Reference: article PMC4604408, “Targeting the Parasite's DNA with Methyltriazenyl Purine Analogs Is a Safe, Selective, and Efficacious Antitrypanosomal Strategy” (Antimicrobial Agents and Chemotherapy, 2015)
Entries after “also recorded” stand apart in the source; their conditions may differ. Read-outs that look alike come from different tables or passages of the source.

Assays:
[1] = biological target: T. brucei H2 (hypoxanthine transporter 2 of T. brucei brucei); type: cell-based; conditions: read-out: Transport (Ki value) T. brucei H2
[2] = test system: T. brucei brucei WT (strain 427); test: microbe, parasite or virus in culture; type: cell-based; conditions: for SI, in vitro selectivity index: EC50(HEK)/EC50(T. brucei brucei WT); for EC50: Trypanosoma brucei, read-out: In vitro activity (EC50) T. brucei brucei WT
[3] = test system: T. brucei brucei 427 tbat1^−/−; test: microbe, parasite or virus in culture; type: cell-based; conditions: for EC50: Trypanosoma brucei, read-out: In vitro activity (EC50) T. brucei brucei 427 tbat1^−/−
[4] = test system: HEK293 (human embryonic kidney 293T cells); test: cells; conditions: read-out: In vitro activity (EC50) HEK293
[5] = test system: Tbb msh2+/+; test: microbe, parasite or virus in culture; type: cell-based, Trypanosoma brucei; conditions: read-out: Tbb msh2+/+ (EC50; µM) AVG
[6] = test system: Tbb msh2-/-; test: microbe, parasite or virus in culture; type: cell-based, Trypanosoma brucei; conditions: for EC50: read-out: Tbb msh2-/- (EC50; µM) AVG
[7] = test system: Tbb msh2+/-; test: microbe, parasite or virus in culture; type: cell-based, Trypanosoma brucei; conditions: read-out: Tbb msh2+/- (EC50; µM) AVG
[8] = biological target: T. brucei H2 (hypoxanthine transporter 2 of T. brucei brucei); design: method as in PMID 9364969; conditions: natural substrates; read-out: Transport (Ki value) T. brucei H2; cited from earlier work
[9] = physchem; conditions: buffer
[10] = test system: bloodstream-form T. brucei; test: potency in Creek's minimal medium with inosine or hypoxanthine as purine source; type: cell-based
[11] = test system: BF T. brucei brucei; test: TUNEL assay for DNA strand breaks in trypanosomes; type: cell-based; conditions: 3 μM, 24 h
[12] = test system: T. brucei brucei (STIB 795); test: mouse model of acute trypanosomiasis; type: in vivo; conditions: female NMRI mice, 50 mg/kg i.p. daily for 4 days from day 3 postinfection
[13] = test system: BF T. brucei; test: DNA content by propidium iodide staining and flow cytometry; type: cell-based; conditions: 15 μM, 24 h
[14] = spontaneous triazene hydrolysis by UV spectroscopy; conditions: 50 µM in PBS at 37 °C, physiological conditions, n=2
[15] = test system: His– S. typhimurium strains TA98 and TAMix; test: Ames II mutagenicity assay; type: cell-based, Salmonella typhimurium; conditions: before (–S9) and after (+S9) metabolic activation, 62.5 µM to 2 mM
[16] = test system: T. brucei rhodesiense (STIB 900); test: stringent mouse model of trypanosomiasis; type: in vivo; conditions: female NMRI mice, 50 mg/kg i.p. for four consecutive days from day 3 postinfection
Procedure: The experiments were performed essentially as described previously ([26]). Female NMRI mice were infected intraperitoneally (i.p.) with 10^4 bloodstream-form T. brucei brucei (strain STIB 795) or 3 × 10^3 T. brucei rhodesiense (strain STIB 900). Experimental groups of four mice were treated i.p. with test drug daily on four consecutive days starting from day 3 postinfection. A control group was infected but remained untreated. The tail blood of each mouse was checked for parasitemia up to 60 days postinfection; mice were culled when parasitemia was >10^8 trypanosomes/ml of blood. Surviving and aparasitemic mice at day 60 were considered cured and were euthanized. All protocols and procedures used in this study were reviewed and approved by the local veterinary authorities of the Canton Basel-Stadt, Switzerland.
Figure S4. Methyltriazenyl purine 1 has a high cure rate in acute T. b. rhodesiense infection in vivo. Kaplan–Meier survival plot for female NMRI mice (n = 4 per group) after infection with T. b. rhodesiense (STIB900) (inoculum 3×10^3 parasites). Intraperitoneal injection with 1 dissolved in DMSO started 3 days after infection at a single dose of 50 mg/kg

[17] = test system: freshly isolated rat hepatocytes; test: hepatotoxicity on freshly isolated rat hepatocytes; type: cell-based; conditions: 100 µM, up to 120 min
Procedure: page 11: Figure S3 A B C 125 125 125 100 100 100 75 75 75 50 50 50 25 Contr ol 25 Contr ol 25 Contr ol 0 + NA1371 0 +NA1371 0 +NA1371 0 30 60 90 120 0 30 60 90 120 0 30 60 90 120 […] ) Figure S3. […] (A) Hepatocytes from male Sprague-Dawley rats were isolated as described (4, 5) and hepatotoxicity assays were performed as described (6). […] or left untreated. Cell viability was determined by a Trypan blue exclusion test. Values are normalized to t=0 min (%). (B) The reduced glutathione (GSH) content of hepatocytes was determined by an O-phthaldehyde fluorimetric test. […] (C) The total protein content of hepatocytes was determined by a Lowry assay. […]

[18] = type: in vivo; conditions: up to 10 × 50 mg/kg i.p. daily
[19] = test system: BF T. brucei; test: growth curves of treated bloodstream-form trypanosomes; type: cell-based; conditions: 15 µM for 72 h in Fig. S7
Procedure: Given its promising antiparasitic efficacy in vitro and in vivo, we selected lead compound 1 for further antitrypanosomal mechanism-of-action studies. […] We analyzed the DNA content of these cells over 24 h by flow cytometry (Fig. 3B; see also Fig. S7 in the supplemental material). After 4 h of exposure to 15 μM compound 1, we observed a decrease in the proportion of cells with normal diploid (2C) DNA content, whereas an aberrant population of cells started to appear with a DNA content between 2C and 4C. […] We also monitored the karyotype distribution of BF T. brucei over time (see Fig. S8 in the supplemental material), using DAPI staining to visualize nuclei (N) and kinetoplasts (K). Within the first 8 h (the normal time to complete one cell cycle) of exposure to compound 1, we observed a significant increase in 1N2K cells, with a coincident decrease in 1N1K and 2N2K. […]
FIG 3 Methyltriazenyl purines cause cell cycle arrest in the G2/M phase in T. brucei. […] (b) DNA content of BF T. brucei in the presence or absence of 15 μM compound 1, as determined by propidium iodide staining of fixed cells and measured by fluorescence-activated cell sorting (FACS). […]
Figure S7. […] B) Long term growth curve of bloodstream form T.b. brucei s427 cultures (seeded at 5 × 10^5 cells/mL) exposed to 15 µM of 1 (closed squares) or vehicle only (open circles) monitored for 72 hours. […]

[20] = test system: HEK293 (human embryonic kidney 293T cells)
[21] = test system: T. b. rhodesiense STIB 900; test: microbe, parasite or virus in culture; type: cell-based; conditions: Trypanosoma brucei, read-out: Trypanosoma brucei rhodesiense EC50
[22] = test system: P. falciparum K1 strain; test: microbe, parasite or virus in culture; type: cell-based; conditions: Plasmodium falciparum, K1, read-out: Plasmodium falciparum EC50
[23] = inhibition of 0.05 μM [3H]hypoxanthine uptake, 60 s, mean ± SEM, n ≥ 3
[24] = Creek's minimal medium, same concentration of inosine or hypoxanthine

SMILES | SI, in vitro selectivity index [2] | EC50 [2] [µM] | EC50 [3] [µM] | EC50 [4] [µM] | EC50 ([5]; Trypanosoma brucei) [µM] | EC50 ([6]; Trypanosoma brucei) [µM] | EC50 ([7]; Trypanosoma brucei) [µM] | also measured
CCOC(=O)N(C)/N=N/c1nc(O)c2nc[nH]c2n1 [Compound 3] | >136 | 1.84 ± 0.08 | 2.86 ± 0.13 | > 250 | – | – | – | Ki [1]: 0.12 ± 0.03 µM
COS(C)(=O)=O [MMS, methyl methanesulfonate] | – | – | – | – | 48.9 | 46.7 | 57.2 | –
O=c1[nH]cnc2nc[nH]c12 [Hypoxanthine] | – | – | – | – | – | – | – | Ki [8]: 0.12 ± 0.03 µM
N.N.[Cl][Pt][Cl] [Cisplatin] | – | – | – | – | – | – | – | EC50 [5]: 13.4 µM; EC50 [6]: 13.6 µM; EC50 [7]: 17.7 µM
N=C(N)c1ccc(/N=N/Nc2ccc(C(=N)N)cc2)cc1 [DIM, diminazene, reference compound] | – | 0.26 ± 0.05 | 7.9 ± 0.7 | – | 0.5 | 0.68 | 0.64 | fold lower activity against tbat1^−/− cells than wild type ([3]; tbat1^−/− versus wild-type): 30 fold
CN(N=Nc1nc(O)c2[nH]cnc2n1)C(=O)Oc1ccccc1 [Compound 2] | >312 | 0.8 ± 0.07 | 1.21 ± 0.19 | > 250 | 2.3 | 6.8 | 4.3 | Ki [1, 23]: 0.2 ± 0.06 µM; potency against cells with impaired or lost MSH2 activity [6]: reduced potency; half-life at 50 µM [9]: 5.6 ± 0.3 h
N=C(N)c1ccc(OCCCCCOc2ccc(C(=N)N)cc2)cc1 [Pentamidine] | – | – | – | – | 0.011 | 0.004 | 0.011 | sensitivity (EC50) in medium with inosine compared to hypoxanthine as purine source [10, 24]: not significantly different
CN(N=Nc1nc(N)c2[nH]cnc2n1)C(=O)Oc1ccccc1 [Compound 6] | >24 | 10.4 ± 0.5 | 10.7 ± 0.4 | > 100 | – | – | – | Ki [1, 23]: 0.46 ± 0.08 µM
CC(=O)N(C)N=Nc1nc(O)c2[nH]cnc2n1 [Compound 1, 2-(3-acetyl-3-methyltriazen-1-yl)-6-hydroxypurine] | >595 | 0.42 ± 0.05 | 0.52 ± 0.08 | > 250 | 0.87 | 3.9 | 1.5 | increase in BrdU incorporation (DNA strand breaks) [11]: 2 fold; cure rate [12]: 100%; survival of treated mice [12]: > 60 days; DNA content of treated cells [13]: majority of cells having an apparent 4C DNA content; hydrolysis half-life [14]: ~6.8 h; half-life at 50 µM ([14]; PBS, hydrolysis half-life): 6.8 ± 0.4 h; Ki [1]: 0.59 ± 0.15 µM; antitrypanosomal potency against BF T. brucei in vitro (in words) [2]: submicromolar; mutagenic activity in Ames II test [15]: negative (not mutagenic); also recorded: did not reveal any mutagenic activity; potency against cells with impaired or lost MSH2 activity [6]: reduced potency; cure rate [16]: 75%; hepatotoxic effects, hepatocyte viability (Trypan blue exclusion) [17]: does not show toxic effects; also recorded: no hepatotoxic effects; total protein content of hepatocytes (Lowry assay) [17]: No protein loss; tolerability [18]: well tolerated; effect on culture proliferation [19]: Cell growth is arrested and the cells eventually die; also recorded: arrested in its proliferation; sensitivity (EC50) in medium with inosine compared to hypoxanthine as purine source [10]: higher
O=C(NN=Nc1nc(O)c2[nH]cnc2n1)Oc1ccccc1 [Compound 5] | – | > 100 | > 100 | > 250 | 192 | 168 | 166 | Ki [1, 23]: 0.09 ± 0.02 µM; toxicity to HEK293T cells (in words) [20]: did not show any toxic effects; antitrypanosomal potency against BF T. brucei in vitro (in words) [2]: did not show any toxic effects
CN(N=Nc1nc(O)c2[nH]cnc2n1)C(=O)Oc1ccc([N+](=O)[O-])cc1 [Compound 4] | >2 | 114 ± 34 | 157 ± 55 | > 250 | – | – | – | antitrypanosomal potency against BF T. brucei in vitro (in words) [2]: practically lost antitrypanosomal activity
CN(N=Nc1nc(N)c2[nH]cnc2n1)C(=O)Oc1ccc([N+](=O)[O-])cc1 [Compound 7] | >13 | 19.4 ± 4.1 | 20.7 ± 4.6 | > 250 | – | – | – | –
CN(/N=N/c1nc(OCc2ccccc2)c2nc[nH]c2n1)C(=O)Oc1ccccc1 [Compound 10] | – | – | – | – | – | – | – | Ki [1, 23]: 22.5 ± 9.2 µM; EC50 [21]: 8.9 µM; EC50 [22]: > 10 µM
Cn1nnc2c(C(N)=O)ncn2c1=O [TMZ, temozolomide] | – | – | – | – | 95 | 173 | 204 | potency against cells with impaired or lost MSH2 activity [6]: reduced potency
Cc1ccc(C(=O)Nc2ccc(S(=O)(=O)O)c3cc(S(=O)(=O)O)cc(S(=O)(=O)O)c23)cc1NC(=O)c1cccc(NC(=O)Nc2cccc(C(=O)Nc3cc(C(=O)Nc4ccc(S(=O)(=O)O)c5cc(S(=O)(=O)O)cc(S(=O)(=O)O)c45)ccc3C)c2)c1 [suramin] | – | – | – | – | – | – | – | sensitivity (EC50) in medium with inosine compared to hypoxanthine as purine source [10, 24]: not significantly different
Nc1nc2nc[nH]c2c(=O)[nH]1 [Guanine] | – | – | – | – | – | – | – | Ki [8]: 0.36 ± 0.18 µM
CC(=O)N(C)/N=N/c1nc(OCc2ccccc2)c2nc[nH]c2n1 [Compound 9] | – | – | – | – | – | – | – | Ki [1]: 5.8 ± 0.01 µM
Nc1ncnc2[nH]cnc12 [Adenine] | – | – | – | – | – | – | – | Ki [8]: 3.2 ± 1.1 µM
